Series [1] deals with Pseudomonas aeruginosa PAO1. Description: Inhibition of LuxR-dependent quorum sensing in Pseudomonas aeruginosa PAO1 assessed as inhibition of autoinducer production.
For series [2], the system named is Pseudomonas aeruginosa PAO1. Description: Inhibition of Pseudomonas aeruginosa PAO1 quorum sensing assessed as reduction of biofilm formation at 3 mg/ml after 18 hrs using crystal violet staining.
In series [3] the test system is Pseudomonas aeruginosa PAO1. Description: Inhibition of Pseudomonas aeruginosa PAO1 quorum sensing assessed as inhibition of pycocyanin production at >/= 0.1 mg/ml after overnight incubation.
The subject of series [4] is Pseudomonas aeruginosa PAO1. Description: Inhibition of Pseudomonas aeruginosa PAO1 quorum sensing assessed as reduction of biofilm formation at 1 mg/ml after 18 hrs using crystal violet staining.
In series [5] the test system is Pseudomonas aeruginosa. Description: Toxicity in Pseudomonas aeruginosa PAO1 quorum sensing assessed as cell viability. Type of series: organism-based.
Series [6] relates to Pseudomonas aeruginosa PAO1. Description: Inhibition of Pseudomonas aeruginosa PAO1 quorum sensing assessed as reduction of biofilm formation at 2 mg/ml after 18 hrs using crystal violet staining.
For series [7], the system named is Chromobacterium violaceum. Description: Inhibition of Chromobacterium violaceum CV026 quorum sensing assessed as N-3-oxohexanoyl-homoserine lactone-induced violacein production at 3 mg/ml relative to control.

Calls of active or inactive are those of the source. The rule behind the calls is not given here.

As a reminder, the inhibition is the percentage by which the read-out fell short of the control. With `O=C(CCCCCCCCc1ccc(O)c(O)c1)c1c(O)cccc1O` [MALABARICONE C], in series [1], the inhibition entry is “inactive”. Moreover, the inhibition in series [2] worked out at 69.4%; in series [4] it was 44.9%; in series [6], 63%. The inhibition entry in series [3] and in series [7] was “Active” throughout. For the same molecule, the Activity result in series [5] is on record as “Non-toxic”.

For the molecule `Oc1cc(O)c2c(c1)O[C@H](c1ccc(O)c(O)c1)[C@@H](O)C2`, the inhibition entry in series [2], in series [4] and in series [6] was “Active” each time.

Values taken from ChEMBL document CHEMBL1909496, “Malabaricone C from Myristica cinnamomea exhibits anti-quorum sensing activity” (J Nat Prod, 2011).
